Values quoted from earlier work, collected in patent US20260207540A1 (priority 2020, published 2026).

Legend:
[1] = 1 microgram/kg IV, canines
[2] = inhalation challenge 0.25 to 10.0 mg/mL
[3] = system: SRCR (scavenger receptor cysteine-rich) domain; conditions: proteins with calcium binding sites similar to host protease TMPRSS2

Row | Compound | EDTA-induced bronchoconstriction [1] | Rubella virus infection (Rubella virus; in the "test tube") | Rubella fusion (Rubella virus; in vitro, addition of the calcium chelator) | bronchoconstriction [2] | calcium-dependent binding [3]
1 | albuterol sulfate | significantly attenuated | – | – | – | –
2 | O=C(O)CN(CCN(CC(=O)O)CC(=O)O)CC(=O)O [EDTA, ethylenediamine tetraacetic acid] | – | prevented | completely abrogated | concentration-dependent bronchoconstriction | disrupted
